Measurements taken from patent US11319322B2, “Substituted aryl ether compound, preparation method thereof, pharmaceutical composition and use thereof” (Xiamen University, priority 2017, dated 2022).

Legend:
Type in all cases: cell-based
[1] = target: T1, CCDC6-RET-BaF3 (Homo sapiens, UniProt P07949); experiment: Growth inhibition of CCDC6-RET-BaF3 cells stably transfected with kinase (MTS); conditions: 48 h, read-out: CCDC6-RET (IC50/nM)
T1 construct: fused on or other part: Q16204 (Coiled-coil domain-containing protein 6)
T1 sequence (P07949 whole entry, change not shown, the tested form may be a part): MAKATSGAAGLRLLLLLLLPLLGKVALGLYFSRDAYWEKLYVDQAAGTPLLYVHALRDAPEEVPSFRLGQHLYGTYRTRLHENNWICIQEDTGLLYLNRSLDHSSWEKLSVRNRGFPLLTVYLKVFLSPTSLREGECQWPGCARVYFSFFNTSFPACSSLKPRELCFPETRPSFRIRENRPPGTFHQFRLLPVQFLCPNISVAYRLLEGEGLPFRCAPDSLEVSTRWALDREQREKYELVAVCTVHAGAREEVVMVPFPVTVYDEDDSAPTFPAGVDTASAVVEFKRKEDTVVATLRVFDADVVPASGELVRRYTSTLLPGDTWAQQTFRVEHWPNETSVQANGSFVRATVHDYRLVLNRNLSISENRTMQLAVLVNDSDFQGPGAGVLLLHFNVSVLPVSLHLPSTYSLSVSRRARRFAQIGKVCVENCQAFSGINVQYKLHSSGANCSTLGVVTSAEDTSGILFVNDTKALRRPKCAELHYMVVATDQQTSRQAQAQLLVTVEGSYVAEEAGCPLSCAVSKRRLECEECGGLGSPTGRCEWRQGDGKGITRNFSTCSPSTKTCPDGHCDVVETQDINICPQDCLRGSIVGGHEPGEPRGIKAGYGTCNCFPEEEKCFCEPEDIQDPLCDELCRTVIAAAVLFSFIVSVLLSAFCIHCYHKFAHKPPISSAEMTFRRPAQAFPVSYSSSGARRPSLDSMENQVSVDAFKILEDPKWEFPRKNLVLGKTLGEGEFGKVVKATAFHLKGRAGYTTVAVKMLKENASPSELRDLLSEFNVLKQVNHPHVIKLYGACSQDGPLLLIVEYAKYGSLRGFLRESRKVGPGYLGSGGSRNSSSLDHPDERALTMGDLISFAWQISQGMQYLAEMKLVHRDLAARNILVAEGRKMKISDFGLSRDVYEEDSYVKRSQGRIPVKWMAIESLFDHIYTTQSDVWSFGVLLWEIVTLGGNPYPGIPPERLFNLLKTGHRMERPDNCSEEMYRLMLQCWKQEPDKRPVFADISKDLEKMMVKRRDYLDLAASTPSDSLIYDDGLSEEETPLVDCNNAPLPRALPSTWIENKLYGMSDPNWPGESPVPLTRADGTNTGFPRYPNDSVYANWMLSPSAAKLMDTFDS
Method in brief: (§1)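 BaF3 cells stably expressing CCDC6-RET or KIF5B-RET, or parental BaF3, 2×10^4 cells/well, treated 48 h at 37 °C with 8-point 1:3 dilutions from 10 μM (0.1% DMSO). MTS/PES added 1–4 h, OD490 read; inhibition versus DMSO and blank gave IC50.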

[2] = target: T2, KIF5B-RET-BaF3 (Homo sapiens, UniProt P07949); experiment: Growth inhibition of KIF5B-RET-BaF3 cells stably transfected with kinase (MTS); conditions: 48 h, read-out: KIF5B-RET (IC50/nM)
T2 construct: fused on or other part: P33176 (Kinesin-1 heavy chain)
T2 sequence (P07949 whole entry, change not shown, the tested form may be a part): as above
Method in brief: as §1

[3] = system: wild-type BaF3; experiment: Growth inhibition of wild-type BaF3 cells, broad-spectrum toxicity (MTS); conditions: Mus musculus, 48 h, read-out: WT Ba/F3 (IC50/nM)
Description: Growth inhibitory activity of compounds on cell lines stably transfected with kinase
The activity of compounds against kinase RET is evaluated by their effect of inhibiting growth of cell lines stably transfected with kinase CCDC6-RET-BaF3, KIF5B-RET-BaF3, and wild-type BaF3 (Proc. Natl. Acad. Sci. USA., 2006, 103, 3153-8.). The growth of the cell lines stably transfected with kinase CCDC6-RET-BaF3, KIF5B-RET-BaF3 depends on their kinase activity. If a compound can inhibit the activity of the kinase RET per se or the activity of the RET signaling pathway, the compound can inhibit the growth of BaF3 cells stably transfected with kinase. […] Therefore, a larger ratio between IC50 of a compound to wild-type BaF3 and IC50 of the compound to the cell lines stably transfected with kinase CCDC6-RET-BaF3, KIF5B-RET-BaF3 indicates better targeting.
The specific test method is given as follows:
1) Medium: DMEM (Dulbecco's modified eagle medium) or RPMI 1640 (containing 10% fetal bovine serum, 100 μg/mL ampicillin, 100 μg/mL streptomycin).
2) Reagents: MTS reaction solution (containing 2 mg/mL of MTS [3-(4,5-dimethylthiazol-2-yl)-5-(3-carboxymethoxyphenyl)-2-(4-sulfophenyl)-2H-tetrazolium, inner Salt]; 100 μg/mL PES (phenazine […])).
3) Compound test: cells stably transfected with kinase (CCDC6-RET-BaF3, KIF5B-RET-BaF3) or wild-type BaF3 cells (2×10^4 cells/well) were incubated into a 96-well culture plate, the volume of cell culture fluid was 90 μL, and then 10 μL of the compound at each gradient concentration was added (the highest concentration was 10 μM, which was diluted stepwise by ⅓, and 8 concentration points were set in total; the system contained 0.1% DMSO (dimethyl sulfoxide)). The cell plate with uniformly mixed compound was cultured in a cell culture incubator (37° C.; 5% CO2) for 48 h, then 20 μL of MTS reaction solution was added, uniformly mixed and incubated in the cell culture incubator (37° C.; 5% CO2) for 1-4 hr, OD values at 490 nm were measured by a microplate reader (VARIOSKAN FLASH, Thermo). Three parallels were set in each group of experiments, with 0.1% (a final concentration) DMSO as a negative control, and a medium without cells or compounds as a blank control. The cell growth inhibition rate was calculated by the following formula: Cell growth inhibition rate %=1−(ODexperimental group−ODblank group)/(ODnegative group−ODblank group)×100%
4) IC50 calculation: The semi-inhibitory concentration of the compound acting on cell growth was calculated using GradPad Prism 5 software according to the measured cell growth inhibition rate.

Compound	GI50 [1] [nM]	GI50 [2] [nM]	IC50 [3] [nM]
Cc1ccc(Oc2nc(-c3ccccc3)nc3cc[nH]c23)cc1NC(=O)c1ccc(CN2CCN(C)CC2)c(C(F)(F)F)c1 [III-j-3]	2480	2350	3780
Cc1ccc(Oc2nc(-c3ccccc3)nc3ccn(C)c23)cc1NC(=O)c1ccc(CN2CCN(C)CC2)c(C(F)(F)F)c1 [III-j-7]	1270	1370	2560
Cc1ccc(Oc2nc(-c3ccsc3)nc3ccn(C)c23)cc1NC(=O)c1ccc(CN2CCN(C)CC2)c(C(F)(F)F)c1 [III-j-8]	1140	1320	1880
Cc1ccc(Oc2nc(-c3ccoc3)nc3cc[nH]c23)cc1NC(=O)c1ccc(CN2CCN(C)CC2)c(C(F)(F)F)c1 [III-j-9]	97.6	464	4260
Cc1ccc(Oc2nc(-c3ccoc3)nc3ccn(C)c23)cc1NC(=O)c1ccc(CN2CCN(C)CC2)c(C(F)(F)F)c1 [III-j-10]	234	428	1460
Cc1ccc(Oc2nc(-c3ccc(Cl)cc3)nc3cc[nH]c23)cc1NC(=O)c1ccc(CN2CCN(C)CC2)c(C(F)(F)F)c1 [III-j-11]	1530	1570	1360
Cc1ccc(Oc2nc(-c3ccc(Cl)cc3)nc3ccn(C)c23)cc1NC(=O)c1ccc(CN2CCN(C)CC2)c(C(F)(F)F)c1 [III-j-12]	2660	2970	2150
Cc1ccc(Oc2nc(-c3ccc(O)cc3)nc3cc[nH]c23)cc1NC(=O)c1ccc(CN2CCN(C)CC2)c(C(F)(F)F)c1 [III-j-13]	1720	2400	4150
Cc1ccc(Oc2nc(-c3ccc(O)cc3)nc3ccn(C)c23)cc1NC(=O)c1ccc(CN2CCN(C)CC2)c(C(F)(F)F)c1 [III-j-14]	876	1380	1340
Cc1ccc(Oc2nc(-c3ccc(N)cc3)nc3cc[nH]c23)cc1NC(=O)c1ccc(CN2CCN(C)CC2)c(C(F)(F)F)c1 [III-j-15]	745	620	1200
Cc1ccc(Oc2nc(-c3ccc(N)cc3)nc3ccn(C)c23)cc1NC(=O)c1ccc(CN2CCN(C)CC2)c(C(F)(F)F)c1 [III-j-16]	2040	1470	2280
Cc1ccc(Oc2ncnc3ccn(C)c23)cc1NC(=O)c1ccc(CN2CCN(C)CC2)c(C(F)(F)F)c1 [III-j-18]	477	1350	> 10000
CN1CCN(Cc2ccc(C(=O)Nc3cc(Oc4nc(-c5cccnc5)nc5cc[nH]c45)ccc3Cl)cc2C(F)(F)F)CC1 [III-k-1]	1860	1320	4160
CN1CCN(Cc2ccc(C(=O)Nc3cc(Oc4nc(-c5cccnc5)nc5ccn(C)c45)ccc3Cl)cc2C(F)(F)F)CC1 [III-k-3]	1250	1190	1170
CN1CCN(Cc2ccc(C(=O)Nc3cc(Oc4nc(-c5ccoc5)nc5cc[nH]c45)ccc3Cl)cc2C(F)(F)F)CC1 [III-k-5]	1490	1920	4360
CN1CCN(Cc2ccc(C(=O)Nc3cc(Oc4nc(-c5ccoc5)nc5ccn(C)c45)ccc3Cl)cc2C(F)(F)F)CC1 [III-k-6]	990	1010	2470
CN1CCN(Cc2ccc(C(=O)Nc3cc(Oc4nc(-c5ccsc5)nc5cc[nH]c45)ccc3Cl)cc2C(F)(F)F)CC1 [III-k-7]	2960	1900	3720
CN1CCN(Cc2ccc(C(=O)Nc3cc(Oc4nc(-c5ccsc5)nc5ccn(C)c45)ccc3Cl)cc2C(F)(F)F)CC1 [III-k-8]	3460	3580	3990
CN1CCN(Cc2ccc(C(=O)Nc3cc(Oc4nc(-c5ccc(O)cc5)nc5cc[nH]c45)ccc3Cl)cc2C(F)(F)F)CC1 [III-k-9]	1190	1490	1650
CN1CCN(Cc2ccc(C(=O)Nc3cc(Oc4nc(-c5ccc(O)cc5)nc5ccn(C)c45)ccc3Cl)cc2C(F)(F)F)CC1 [III-k-10]	2300	2440	1440
CN1CCN(Cc2ccc(C(=O)Nc3cc(Oc4nc(-c5ccc(N)cc5)nc5cc[nH]c45)ccc3Cl)cc2C(F)(F)F)CC1 [III-k-11]	451	496	1290
CN1CCN(Cc2ccc(C(=O)Nc3cc(Oc4nc(-c5ccc(Cl)cc5)nc5cc[nH]c45)ccc3Cl)cc2C(F)(F)F)CC1 [III-k-13]	1450	1550	1600
Cc1ccc(-c2nc(Oc3ccc(Cl)c(NC(=O)c4ccc(CN5CCN(C)CC5)c(C(F)(F)F)c4)c3)c3c(ccn3C)n2)cc1 [III-k-16]	2090	3190	3630
CN1CCN(Cc2ccc(C(=O)Nc3cc(Oc4nc(-c5ccccc5)nc5cc[nH]c45)ccc3Cl)cc2C(F)(F)F)CC1 [III-k-17]	1410	2610	2630
CN1CCN(Cc2ccc(C(=O)Nc3cc(Oc4nc(-c5ccccc5)nc5ccn(C)c45)ccc3Cl)cc2C(F)(F)F)CC1 [III-k-18]	4120	3990	3890

Continued, in another order:

GI50 [1] [nM]	GI50 [2] [nM]	Compound	IC50 [3] [nM]
73.4	240	Cc1ccc(C(=O)Nc2ccc(CN3CCN(C)CC3)c(C(F)(F)F)c2)cc1Oc1nc(-c2ccncc2)nc2[nH]ncc12 [II-m-21]	4780
1360	1720	Cc1ccc(Oc2nc(-c3ccsc3)nc3cc[nH]c23)cc1NC(=O)c1ccc(CN2CCN(C)CC2)c(C(F)(F)F)c1 [III-j-4]	3410
0.79	17.2	CN1CCN(Cc2ccc(C(=O)Nc3cc(Oc4nc(-c5ccncc5)nc5cc[nH]c45)ccc3Cl)cc2C(F)(F)F)CC1 [III-k-2]	1340
11.2	70.7	CN1CCN(Cc2ccc(C(=O)Nc3cc(Oc4nc(-c5ccncc5)nc5ccn(C)c45)ccc3Cl)cc2C(F)(F)F)CC1 [III-k-4]	1620
2710	2410	Cc1ccc(C(=O)Nc2ccc(CN3CCN(C)CC3)c(C(F)(F)F)c2)cc1Oc1nc(-c2ccccc2)nc2cc[nH]c12 [III-m-3]	3100
2720	3860	Cc1ccc(-c2nc(Oc3cc(C(=O)Nc4ccc(CN5CCN(C)CC5)c(C(F)(F)F)c4)ccc3C)c3[nH]ccc3n2)cc1 [III-m-4]	3460
3760	4040	Cc1ccc(C(=O)Nc2ccc(CN3CCN(C)CC3)c(C(F)(F)F)c2)cc1Oc1nc(-c2cccc(Cl)c2)nc2cc[nH]c12 [III-m-5]	3920
3770	3950	Cc1ccc(C(=O)Nc2ccc(CN3CCN(C)CC3)c(C(F)(F)F)c2)cc1Oc1nc(-c2ccc(Cl)cc2)nc2cc[nH]c12 [III-m-6]	2790
1410	2350	Cc1ccc(C(=O)Nc2ccc(CN3CCN(C)CC3)c(C(F)(F)F)c2)cc1Oc1nc(-c2cccc(O)c2)nc2cc[nH]c12 [III-m-7]	4330
1240	1710	Cc1ccc(C(=O)Nc2ccc(CN3CCN(C)CC3)c(C(F)(F)F)c2)cc1Oc1nc(-c2ccoc2)nc2cc[nH]c12 [III-m-8]	4100
1250	3050	Cc1ccc(C(=O)Nc2ccc(CN3CCN(C)CC3)c(C(F)(F)F)c2)cc1Oc1nc(-c2cccnc2)nc2ccn(C)c12 [III-m-9]	1440
544	1050	Cc1ccc(C(=O)Nc2ccc(CN3CCN(C)CC3)c(C(F)(F)F)c2)cc1Oc1nc(-c2ccncc2)nc2ccn(C)c12 [III-m-10]	623
4020	4280	Cc1ccc(-c2nc(Oc3cc(C(=O)Nc4ccc(CN5CCN(C)CC5)c(C(F)(F)F)c4)ccc3C)c3c(ccn3C)n2)cc1 [III-m-12]	3580
